Results reported in US9632034B2, “Fluorogenic and chromogenic substrate” (LI-COR, Inc., priority 2015, dated 2017).
Values belong to the compound of their own block, whether it stands above or below them.

Experiments:
[1] = target: T1, HRP-conjugated secondary antibody (Erk protein in C32 cell lysates) (Armoracia rusticana, UniProt P00433); assay: Western blot of Erk protein in C32 cell lysates, near-infrared chemifluorescence detection against chemiluminescent substrate; type: biochemical
T1 sequence (P00433 31-338): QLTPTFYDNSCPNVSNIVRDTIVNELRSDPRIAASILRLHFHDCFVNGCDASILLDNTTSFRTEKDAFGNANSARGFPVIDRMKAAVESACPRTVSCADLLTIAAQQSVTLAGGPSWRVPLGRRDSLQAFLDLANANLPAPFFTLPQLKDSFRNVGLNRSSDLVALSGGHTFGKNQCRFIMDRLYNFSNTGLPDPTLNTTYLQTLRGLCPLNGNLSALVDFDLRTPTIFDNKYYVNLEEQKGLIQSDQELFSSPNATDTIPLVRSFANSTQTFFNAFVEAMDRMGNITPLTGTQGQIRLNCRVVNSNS
Method: A series of tests were performed to determine the optimal concentration of PTA in the detection method. Western blot analysis was performed on cell lysates generated from the C32 cell line that expresses high levels of Erk protein. The lysates were processed according to standard western blotting protocols. Briefly, Erk protein was detected using a primary antibody against Erk (an anti-Erk monoclonal antibody) and an HRP-conjugated secondary antibody (goat anti-mouse IgG antibody). Different concentrations of the PTA substrate were compared by visualization of color formation and detection of protein bands. The limit of detection (LOD) was measured by chemifluorescence signal and compared to the LOD using Thermo Scientific™ SuperSignal™ West Femto Substrate. […] FIG. 5 illustrates the comparison and effect of PTA concentration on LOD of Erk protein in C32 cell lysates.
The exemplary formulation of the detection solution tested comprises two concentrated solutions: Solution A (a first part) and Solution B (a second part). […]
In this experiment Erk protein was detected in C32 cell lysates using a 1:1000 dilution of a monoclonal antibody directed to Erk. […] Near-infrared fluorescence from PTA treated blot was detected using the Odyssey® CLx system set at the 700 channel. Chemiluminescence from the control blot was detected using the Odyssey® Fc imaging system set at the chemiluminescence channel.

[2] = PTA solubility in water and in assay buffer with solubilizers (precipitate visualization, HPLC); type: physicochemical; conditions: for Appearance of solution: PTA in assay buffer (Tris buffer, pH 9.5) with the named solubilizer at the w/v concentration printed in the table; for Appearance of PTA solution after overnight storage at room temperature: PTA in assay buffer (Tris buffer, pH 9.5) with the named solubilizer
Method: Next, the solvent system for phenothiazine (PTA) was tested. […] The solubility of PTA with polymers was tested by precipitate visualization and by HPLC of fresh and stored samples. Table 1 provides a comparison of polymers that include PTA solubility in an assay buffer, such as Tris buffer, pH 9.5.

HRP-azine system = target: T2, HRP-azine system (Armoracia rusticana, UniProt P00433); assay: Optimisation of formulation components (radical enhancer, nucleophilic reagent, oxidant) on western blot; type: biochemical; conditions: for preferred concentration in working solution: by rate of visualization and/or number of colored bands on western blot, PTAS tested 2 to 30 mM, MORP 0 to 20 mM; for effect of oxidant on azine oxidization and formation of colored and fluorescent compounds: at certain concentrations, HRP-azine system
T2 sequence (P00433 31-338): T1 sequence (P00433 31-338)
Method: The optimal concentrations of the cation radical enhancer, nucleophilic reagent, solvent system and oxidant in the formulation were also tested. Water soluble azine, particularly 3-(10′-phenothiazinyl)propane-1-sulfonate (PTAS) was tested at various concentrations from 2 to 30 mM in a working solution. The effects were evaluated using the rate (speed) of visualization and the number of colored band on western blot. The preferred concentration of PTAS was 18 mM. Other water soluble and N-substituted PTA derivatives can also be used in place of PTAS or in combination thereof. The nucleophilic reagent serves as a co-substrate in the detection solution. The nucleophilic reagent can include five or six membered nitrogen heteroaromatic ring compounds. MORP at concentrations from 0 to 20 mM was tested in the formulation. Based on the number of colored bands detected, the preferred concentration was 15 mM MORP in the working solution.
Stable oxidants that are compatible with HRP-azine system are tested. Sodium perborate (NaBO3), Urea-H2O2 and stabilized H2O2 at certain concentrations accelerated azine oxidization and formation of colored and fluorescent compounds.

enhancement in sensitivity compared to SuperSignal West Femto Chemiluminescence Substrate ([1]; BLMB formulation with dextran sulfate, DMAP, HNA, citric buffer, NaBO3, final pH 5.0): 2˜4 fold
Compound: CN(C)c1ccc2c(c1)Sc1cc(N(C)C)ccc1N2C(=O)c1ccccc1 [BLMB]

Compound: OCCO [Ethylene Glycol (EG), Ethylene Glycol]
Appearance of solution [2]: cloudy
Appearance of PTA solution after overnight storage at room temperature [2]: Precipitation,
PTA concentration given with appearance of PTA solution after overnight storage at room temperature ([2]; PTA in assay buffer with the named solubilizer): 0.5 mM

preferred concentration in working solution (HRP-azine system): 15 mM
Compound: c1cc(N2CCOCC2)ccn1 [MORP, 4-morpholinopyridine]

Compound: c1ccc2c(c1)Nc1ccccc1S2 [PTA, 10H-phenothiazine]
Appearance of solution [2]: cloudy
Appearance of PTA solution after overnight storage at room temperature [2]: Precipitate,
PTA concentration given with appearance of PTA solution after overnight storage at room temperature ([2]; assay buffer, no solubilizer added): 0.00015 mM
PTA concentration with the highest sensitivity in working solution ([1]; LOD of Erk protein by chemifluorescence at 700 nm, 0.65, 0.35, 0.15 mM PTA compared): 0.35 mM

Compound: O=S(=O)([O-])CCCN1c2ccccc2Sc2ccccc21.[Na+] [PTAS, sodium 3-(phenothiazine-10-yl)propane-1-sulfonate]
preferred concentration in working solution (HRP-azine system): 18 mM

Compound: NC(N)=O.OO [Urea-H2O2, urea-hydrogen peroxide]
effect of oxidant on azine oxidization and formation of colored and fluorescent compounds (HRP-azine system): accelerated

Compound: OO [stabilized H2O2, hydrogen peroxide]
effect of oxidant on azine oxidization and formation of colored and fluorescent compounds (HRP-azine system): accelerated

effect of oxidant on azine oxidization and formation of colored and fluorescent compounds (HRP-azine system): accelerated
Compound: Sodium perborate
